Reference: patent US9751926B2 (priority 2013, dated 2017)
In brackets after ≈: the same amount, converted by molar mass. Like-named read-outs stand apart in the source and are kept apart here.

What was measured:
physchem = format: physicochemical
human glucagon receptor = molecular target: T1, human glucagon receptor (Homo sapiens, UniProt P47871); test: cAMP response (HTRF) of HEK-293 cells stably expressing human glucagon receptor; format: cell-based; details: formed cAMP
T1 construct: expressed in transfected cells
T1 sequence (P47871 26-477): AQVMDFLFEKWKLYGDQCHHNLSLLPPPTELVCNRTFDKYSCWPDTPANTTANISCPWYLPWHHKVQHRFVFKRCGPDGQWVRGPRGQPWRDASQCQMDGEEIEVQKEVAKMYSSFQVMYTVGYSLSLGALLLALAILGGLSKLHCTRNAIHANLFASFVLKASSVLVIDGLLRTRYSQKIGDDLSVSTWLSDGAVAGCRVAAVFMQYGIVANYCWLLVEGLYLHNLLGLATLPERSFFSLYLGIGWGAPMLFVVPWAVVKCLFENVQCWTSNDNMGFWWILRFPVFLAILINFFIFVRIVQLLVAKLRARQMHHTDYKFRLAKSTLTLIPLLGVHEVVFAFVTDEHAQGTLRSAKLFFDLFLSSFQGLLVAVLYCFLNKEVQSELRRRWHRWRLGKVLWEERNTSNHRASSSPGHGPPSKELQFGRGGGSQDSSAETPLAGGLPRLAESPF
Protocol: (§1) cAMP content of cells was determined using a kit from Cisbio Corp. (cat. no. 62AM4PEC) based on HTRF (Homogenous Time Resolved Fluorescence). For preparation, cells were split into T175 culture flasks and grown overnight to near confluency in medium (DMEM/10% FBS). Medium was then removed and cells washed with PBS lacking calcium and magnesium, followed by proteinase treatment with accutase (Sigma-Aldrich cat. no. A6964). Detached cells were washed and resuspended in assay buffer (1×HBSS; 20 mM HEPES, 0.1% BSA, 2 mM IBMX) and cellular density determined. They were then diluted to 400000 cells/ml and 25 μl-aliquots dispensed into the wells of 96-well plates. For measurement, 25 μl of test compound in assay buffer was added to the wells, followed by incubation for 30 minutes at room temperature.

human GIP receptor = molecular target: T2, human GIP receptor (Homo sapiens, UniProt P48546); test: cAMP response (HTRF) of HEK-293 cells stably expressing human GIP receptor; format: cell-based; details: Table 1; formed cAMP; read-out: EC50 hGIP R
T2 construct: expressed in transfected cells
T2 sequence (P48546 22-466): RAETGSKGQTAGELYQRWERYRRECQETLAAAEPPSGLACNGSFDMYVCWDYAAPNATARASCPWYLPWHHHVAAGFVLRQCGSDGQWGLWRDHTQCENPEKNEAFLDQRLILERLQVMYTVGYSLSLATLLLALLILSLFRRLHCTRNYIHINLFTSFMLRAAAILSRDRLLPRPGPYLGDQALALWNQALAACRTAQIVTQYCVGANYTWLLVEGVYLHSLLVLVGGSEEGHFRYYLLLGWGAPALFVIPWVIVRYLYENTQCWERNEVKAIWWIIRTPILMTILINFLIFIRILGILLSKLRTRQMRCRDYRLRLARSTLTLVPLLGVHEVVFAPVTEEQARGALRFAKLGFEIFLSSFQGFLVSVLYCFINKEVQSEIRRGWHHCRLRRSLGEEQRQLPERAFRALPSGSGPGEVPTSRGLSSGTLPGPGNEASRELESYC
Protocol: as §1

human GLP-1 receptor = molecular target: T3, human GLP-1 receptor (Homo sapiens, UniProt P43220); test: cAMP response (HTRF) of HEK-293 cells stably expressing human GLP-1 receptor; format: cell-based; details: Table 6; formed cAMP; read-out: EC50 hGLP-1 R
T3 construct: expressed in transfected cells
T3 sequence (P43220 24-463): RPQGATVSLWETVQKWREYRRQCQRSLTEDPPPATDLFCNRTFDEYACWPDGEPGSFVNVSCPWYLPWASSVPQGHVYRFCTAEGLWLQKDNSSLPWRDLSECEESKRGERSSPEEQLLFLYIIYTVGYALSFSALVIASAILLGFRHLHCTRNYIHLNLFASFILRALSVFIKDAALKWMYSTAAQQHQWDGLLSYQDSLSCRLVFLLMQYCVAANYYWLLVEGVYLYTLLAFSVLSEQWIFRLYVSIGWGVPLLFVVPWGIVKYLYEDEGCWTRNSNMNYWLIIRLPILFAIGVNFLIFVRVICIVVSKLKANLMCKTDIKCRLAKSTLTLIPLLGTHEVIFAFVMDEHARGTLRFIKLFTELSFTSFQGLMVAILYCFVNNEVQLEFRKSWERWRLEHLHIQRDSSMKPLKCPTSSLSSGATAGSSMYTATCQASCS
Protocol: as §1

[1] = Table 6, read-out: EC50 hGLUC R

CC[C@H](C)[C@H](NC(=O)[C@H](CO)NC(=O)[C@H](CC(C)C)NC(=O)[C@H](CC(=O)O)NC(=O)[C@H](CO)NC(=O)[C@@H](NC(=O)[C@H](Cc1ccccc1)NC(=O)[C@@H](NC(=O)CNC(=O)[C@H](CCC(=O)O)NC(=O)C(C)(C)NC(=O)[C@@H](N)Cc1ccc(O)cc1)[C@@H](C)O)[C@@H](C)O)C(=O)N[C@@H](CCC(N)=O)C(=O)N[C@@H](CC(C)C)C(=O)N[C@@H](CCC(=O)O)C(=O)N[C@@H](CCCCN)C(=O)N[C@@H](CCC(=O)O)C(=O)N[C@@H](C)C(=O)N[C@H](C(=O)N[C@@H](CCCNC(=N)N)C(=O)N[C@@H](CC(C)C)C(=O)N[C@@H](Cc1ccccc1)C(=O)N[C@H](C(=O)N[C@@H](CCC(=O)O)C(=O)N[C@@H](Cc1c[nH]c2ccccc12)C(=O)N[C@@H](CC(C)C)C(=O)N[C@@H](CCCCN)C(=O)N[C@@H](C)C(=O)NCC(=O)NCC(=O)N1CCC[C@H]1C(=O)N[C@@H](CO)C(=O)N[C@@H](CO)C(=O)NCC(=O)N[C@@H](C)C(=O)N1CCC[C@H]1C(=O)N1CCC[C@H]1C(=O)N1CCC[C@H]1C(=O)N[C@@H](CO)C(N)=O)[C@@H](C)CC)C(C)C [SEQ ID NO 10, Y-Aib-EGTFTSDLSIQLEKEAVRLFIEWLKAGGPSSGAPPPS-NH2]
solubility (physchem; pH 4.5): 934 µg/mL (≈ 224 µM)
solubility (physchem; pH 7.4): > 1000 µg/mL
EC50 (human glucagon receptor; Table 1, read-out: EC50 hGlucagon R): > 10000 nM
EC50 (human GIP receptor): 12.5 nM

CCCC[C@H](NC(=O)[C@H](CCC(N)=O)NC(=O)[C@@H](NC(=O)[C@H](CO)NC(=O)[C@H](CC(C)C)NC(=O)[C@H](CC(=O)O)NC(=O)[C@H](CO)NC(=O)[C@@H](NC(=O)[C@H](Cc1ccccc1)NC(=O)[C@@H](NC(=O)CNC(=O)[C@H](CCC(=O)O)NC(=O)C(C)(C)NC(=O)[C@@H](N)Cc1ccc(O)cc1)[C@@H](C)O)[C@@H](C)O)[C@@H](C)CC)C(=O)N[C@@H](CCC(=O)O)C(=O)N[C@@H](CCCCN)C(=O)N[C@@H](CCC(=O)O)C(=O)N[C@@H](C)C(=O)N[C@H](C(=O)N[C@@H](CCCNC(=N)N)C(=O)N[C@@H](CC(C)C)C(=O)N[C@@H](Cc1ccccc1)C(=O)N[C@H](C(=O)N[C@@H](CCC(=O)O)C(=O)N[C@@H](Cc1c[nH]c2ccccc12)C(=O)N[C@@H](CC(C)C)C(=O)N[C@@H](CCCCN)C(=O)N[C@@H](C)C(=O)NCC(=O)NCC(=O)N1CCC[C@H]1C(=O)N[C@@H](CO)C(=O)N[C@@H](CO)C(=O)NCC(=O)N[C@@H](C)C(=O)N1CCC[C@H]1C(=O)N1CCC[C@H]1C(=O)N1CCC[C@H]1C(=O)N[C@@H](CO)C(N)=O)[C@@H](C)CC)C(C)C [compound 11]
solubility at 2 h (physchem; pH 4.5): 911 µg/mL (≈ 219 µM)
solubility at 2 h (physchem; pH 7.4): > 1000 µg/mL
EC50 (human GLP-1 receptor): 0.001 nM
EC50 (human glucagon receptor; [1]): > 1000 nM

CCCC[C@H](NC(=O)[C@H](CCC(N)=O)NC(=O)[C@@H](NC(=O)[C@H](CO)NC(=O)[C@H](CC(C)C)NC(=O)[C@H](CC(=O)O)NC(=O)[C@H](CO)NC(=O)[C@@H](NC(=O)[C@H](Cc1ccccc1)NC(=O)[C@@H](NC(=O)CNC(=O)[C@H](CCC(=O)O)NC(=O)C(C)(C)NC(=O)[C@@H](N)Cc1ccc(O)cc1)[C@@H](C)O)[C@@H](C)O)[C@@H](C)CC)C(=O)N[C@@H](CCC(=O)O)C(=O)N[C@@H](CCCCN)C(=O)N[C@@H](CCC(=O)O)C(=O)N[C@@H](C)C(=O)N[C@H](C(=O)N[C@@H](CCCNC(=N)N)C(=O)N[C@@H](CC(C)C)C(=O)N[C@@H](Cc1ccccc1)C(=O)N[C@H](C(=O)N[C@@H](CCC(=O)O)C(=O)N[C@@H](Cc1c[nH]c2ccccc12)C(=O)N[C@@H](CC(C)C)C(=O)N[C@@H](CCCCN)C(=O)N[C@@H](C)C(=O)NCC(=O)NCC(=O)N1CCC[C@H]1C(=O)N[C@@H](CO)C(=O)N[C@@H](CO)C(=O)NCC(=O)N[C@@H](C)C(=O)N1CCC[C@H]1C(=O)N1CCC[C@H]1C(=O)N1CCC[C@H]1C(=O)N[C@@H](CO)C(=O)N[C@@H](CCCCN)C(N)=O)[C@@H](C)CC)C(C)C [compound 12]
solubility at 2 h (physchem; pH 4.5): 943 µg/mL (≈ 220 µM)
solubility at 2 h (physchem; pH 7.4): 848 µg/mL (≈ 198 µM)
EC50 (human GLP-1 receptor): 0.0013 nM
EC50 (human glucagon receptor; [1]): > 1000 nM

CC[C@H](C)[C@H](NC(=O)[C@H](CO)NC(=O)[C@H](CC(C)C)NC(=O)[C@H](CC(=O)O)NC(=O)[C@H](CO)NC(=O)[C@@H](NC(=O)[C@H](Cc1ccccc1)NC(=O)[C@@H](NC(=O)CNC(=O)[C@H](CCC(=O)O)NC(=O)C(C)(C)NC(=O)[C@@H](N)Cc1ccc(O)cc1)[C@@H](C)O)[C@@H](C)O)C(=O)N[C@@H](CCC(N)=O)C(=O)N[C@@H](CC(C)C)C(=O)N[C@@H](CCC(=O)O)C(=O)N[C@@H](CCC(=O)O)C(=O)N[C@@H](CCC(=O)O)C(=O)N[C@@H](C)C(=O)N[C@H](C(=O)N[C@@](C)(CCCN)C(=O)N[C@@H](CC(C)C)C(=O)N[C@@H](Cc1ccccc1)C(=O)N[C@H](C(=O)N[C@@H](CCC(=O)O)C(=O)N[C@@H](Cc1c[nH]c2ccccc12)C(=O)N[C@@H](CC(C)C)C(=O)N[C@@H](CCCCN)C(=O)N[C@@H](C)C(=O)NCC(=O)NCC(=O)N1CCC[C@H]1C(=O)N[C@@H](CO)C(=O)N[C@@H](CO)C(=O)NCC(=O)N[C@@H](C)C(=O)N1CCC[C@H]1C(=O)N1CCC[C@H]1C(=O)N1CCC[C@H]1C(=O)N[C@@H](CO)C(N)=O)[C@@H](C)CC)C(C)C [compound 19]
EC50 (human GLP-1 receptor): 0.0012 nM
EC50 (human glucagon receptor; [1]): > 1000 nM

CC[C@H](C)[C@H](NC(=O)[C@H](CO)NC(=O)[C@H](CC(C)C)NC(=O)[C@H](CC(=O)O)NC(=O)[C@H](CO)NC(=O)[C@@H](NC(=O)[C@H](Cc1ccccc1)NC(=O)[C@@H](NC(=O)CNC(=O)[C@H](CCC(=O)O)NC(=O)C(C)(C)NC(=O)[C@@H](N)Cc1ccc(O)cc1)[C@@H](C)O)[C@@H](C)O)C(=O)N[C@@H](CCC(N)=O)C(=O)N[C@@H](CC(C)C)C(=O)N[C@@H](CCC(=O)O)C(=O)N[C@@H](CCCCN)C(=O)N[C@@H](CCC(=O)O)C(=O)N[C@@H](C)C(=O)N[C@H](C(=O)N[C@@H](CCCNC(=N)N)C(=O)N[C@@H](CC(C)C)C(=O)N[C@@H](Cc1ccccc1)C(=O)N[C@H](C(=O)N[C@@H](CCC(=O)O)C(=O)N[C@@H](Cc1c[nH]c2ccccc12)C(=O)N[C@@H](CC(C)C)C(=O)N[C@@H](CCCCN)C(=O)N[C@@H](C)C(=O)NCC(=O)NCC(=O)N1CCC[C@H]1C(=O)N[C@@H](CO)C(=O)N[C@@H](CO)C(=O)NCC(=O)N[C@@H](C)C(=O)N1CCC[C@H]1C(=O)N1CCC[C@H]1C(=O)N1CCC[C@H]1C(=O)N[C@@H](CO)C(N)=O)[C@@H](C)CC)C(C)C [compound 20]
EC50 (human GLP-1 receptor): 0.001 nM
EC50 (human glucagon receptor; [1]): > 1000 nM
